Data reported in patent US20100048733A1, “PENETRATION ENHANCER FOR FUNGICIDES” (Bayer CropScience AG, priority 2006, published 2010).
Entries after “also recorded” stand apart in the source; their conditions may differ. Blank lines part the entries; values can stand above or below the compound they belong to.

Key:
[1] = Penetration test: active substance penetration through enzymatically isolated apple leaf cuticles in diffusion cells, radioactively marked active substance; type: in vitro ADME, apple trees of the Golden Delicious variety
Procedure: In this test, the penetration of active substances through enzymatically isolated cuticles of apple tree leaves was measured.
Leaves which were cut off in the stage of full development of apple trees of the Golden Delicious variety were used. The isolation of the cuticles was effected in a manner such that • first, leaf disks marked on the underside with dye and punched out were filled by means of vacuum infiltration with a pectinase solution (0.2 to 2% strength by weight) buffered to a pH between 3 and 4, • sodium azide was then added and • the leaf disks thus treated were allowed to stand until disintegration of the original leaf structure and detachment of the noncellular cuticle.
Thereafter, only those cuticles of the upper sides of the leaves which were free of stomata and hairs were further used. They were washed several times alternately with water and a buffer solution at pH 7. The cleaned cuticles obtained were finally drawn onto small Teflon plates and smoothed and dried with a gentle air jet.
In the next step, the cuticle membranes thus obtained were placed in stainless steel diffusion cells (=transport chambers) for membrane transport investigations. For this purpose, the cuticles were placed by means of forceps centrally on the silicone grease-coated edges of the diffusion cells and closed with a likewise greased ring. The arrangement was chosen so that the morphological outside of the cuticles faced outward, i.e. toward the air, while the original inside faced the interior of the diffusion cell. The diffusion cells were filled with water or with a mixture of water and solvent.
For determining the penetration, in each case 10 μl of a spray liquor of the composition mentioned in the examples were applied to the outside of a cuticle.
In each case the solvents listed below in the table (tap water or a mixture with 20% by weight of acetone/80% by weight of tap water) were used in the spray liquors.
After the application of the spray liquors, in each case the solvent was allowed to evaporate, and in each case the chambers were then turned around and placed in thermostated trays, air having a defined temperature and atmospheric humidity being blown onto the outside of the cuticle. The incipient penetration therefore took place at a relative humidity of 60% and a set temperature of 20 or 25° C. The active substance penetration was measured with radioactively marked active substance.

crop plant = assay: Crop plant tolerance tests; type: in vivo; conditions: compared with other alkyl ester additives; no data shown
[2] = penetration of tebuconazole 0.3 g/l, without or with 2.0 g/l penetration enhancer, acetone/tap water 20/80% by weight, apple leaf cuticles, T = 20-25° C., rel. humidity 56-60%, mean of 4-8 repetitions

Structure (SMILES): CCCCOCCOP(=O)(OCCOCCCC)OCCOCCCC [TBEP, tributoxyethyl phosphate]
- Effect of the penetration enhancer on uptake of the active substances (in words) ([1]; summary of tables 1 and 2, 2.0 g/l TBEP with 0.3 g/l fungicide): considerable increase in uptake of the active substances; also recorded: advantageously higher increase in uptake of active substances than the penetration enhancers of the prior art
- Crop plant tolerance (crop plant): more tolerant than other alkyl ester additives

- % Penetration (after hours): 3 hours ([1]; apple tree, 3 h, 0.3 g/l): 0.1 (3) %
- % Penetration (after hours): 24 hours ([1]; apple tree, 24 h, 0.3 g/l): 0.6 (24) %
Structure (SMILES): O=C(NCc1ncc(C(F)(F)F)cc1Cl)c1c(Cl)cccc1Cl [fluopicolid, 2,6-dichloro-N-[[3-chloro-5-(trifluoromethyl)-2-pyridinyl]methyl]benzamide]

Structure (SMILES): OC(Cc1ccccc1Cl)(Cn1nc[nH]c1=S)C1(Cl)CC1 (centres unmarked) [prothioconazole]
- % Penetration (after hours): 3 hours ([1]; after 3 h, 0.3 g/l active substance, without or with 2.0 g/l TBEP, acetone/tap water 20/80% by weight, apple leaf cuticles, T = 20-25° C., rel. humidity 56-60%, mean of 4-8 repetitions): 0.04 (3) %
- % Penetration (after hours): 24 hours ([1]; after 24 h, 0.3 g/l active substance, without or with 2.0 g/l TBEP, acetone/tap water 20/80% by weight, apple leaf cuticles, T = 20-25° C., rel. humidity 56-60%, mean of 4-8 repetitions): 0.6 (24) %

Structure (SMILES): CC(C)(C)C(O)(CCc1ccc(Cl)cc1)Cn1cncn1 (centres unmarked) [tebuconazole]
- % Penetration (after 3 hours) [1, 2]: 0.9%
- % Penetration (after 24 hours) [1, 2]: 1.1%
